Activity calls are given as the source filed them. No rule for the calls is given here.

The test system of the test is SNU-C1 viability, CellTiter-Glo ATP luminescence. Description: SNU-C1 cell viability reduction, dose response, CellTiter-Glo luminescence (AID 1117323).
For `Cc1ccc([N+](=O)[O-])[c]2c1[O][Hg]2`, the IC50 was 202 nM.

`CC(=O)[O][Hg][c]1ccccc1`: the IC50 is 192 nM.

On to `OCCN1CCN(CC/C=C2/c3ccccc3Sc3ccc(C(F)(F)F)cc32)CC1`, for which the half-inhibitory concentration (IC50) was 1030 nM.

For the compound `O=C1[O][Bi][O]c2ccccc21`, the IC50 was 15400 nM (inactive).

For `CCCCCCCCCCCCCC[N+](C)(C)C`, the IC50 is 5.17 nM.

For the compound `O=C(O)C1(C(=O)O)CCC1.[NH2-].[NH2-].[Pt+2]`, the IC50 is > 20000 nM (inactive).

Consider `CC[C@]1(O)C[C@@H]2CN(CCc3c([nH]c4ccccc34)[C@@](C(=O)OC)(c3cc4c(cc3OC)N(C)[C@H]3[C@@](O)(C(=O)OC)[C@H](OC(C)=O)[C@]5(CC)C=CCN6CC[C@]43[C@@H]65)C2)C1`, for which the IC50 was > 20000 nM (inactive).

For orientation: IC50 means the midpoint of a concentration-inhibition curve.

For the origin of these results see PubChem BioAssay AID1117323.
